Measurements from patent publication US11542255B2, “Sulfonylureas and sulfonylthioureas as NLRP3 inhibitors” (Inflazome Limited, priority 2017, dated 2023).
Where a name gives a salt, the structure may show the parent alone.

What was measured:
NLRP3 [1] = target: T1, NLRP3 (Homo sapiens, UniProt Q96P20); assay: THP-1 cells pyroptosis assay (LPS + nigericin, resazurin readout); assay type: cell-based; design: Seed THP-1 cells (25,000 cells/well) containing 1.0 μg/ml LPS in 40 μl of RPMI medium; host or cells: THP-1 cells; conditions: NLRP3 inhibitory activity, 1.0 μg/ml LPS, 5 μM nigericin
Summary of the method: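 LPS-primed (1 μg/ml) THP-1 cells, 25,000/well in serum-free RPMI, given compound (8-point half-log, 10 μM top; 0.1% DMSO) for 3 h at 37 °C, then nigericin 5 μM for 1 h. Viability by resazurin (100 μM, 1-2 h), Ex 560/Em 590 nm; IC50 from 4-parameter variable-slope fit.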

[2] = PK protocol, intravenous administration; assay type: in vivo, male Sprague Dawley rats; conditions: male, Sprague Dawley, rat, plasma, dose (mg/kg); for Vd: read-out: Vdss
Protocol: Pharmacokinetic parameters were determined in male Sprague Dawley rats (Charles River, UK, 250-350 g; or Vital River Laboratory Animal Technology Co Ltd, Beijing, China, 7-9 weeks old). Animals were individually housed during the study and maintained under a 12 h light/dark cycle. Animals had free access to food and water except that some orally dosed animals were food deprived overnight prior to the study.
For intravenous administration, compounds were formulated as a solution in water or […] in 2 mL/kg dosing volume and administered via tail vein. For oral administration, compounds were formulated as a solution in water or DMSO:water [10:90] in 5 mL/kg dosing volume and administered orally.
Serial blood samples (about 120-300 μL) were taken from each animal at each of 8 time-points post dose (0.083, 0.25, 0.5, 1, 2, 4, 8 and 24 h) or at each of 12 time-points post dose (0.03, 0.1, 0.17, 0.25, 0.5, 1, 2, 4, 6, 8, 12 and 24 h) or pre-dose and at each of 9 time-points post dose (0.25, 0.5, 1, 2, 4, 6, 8, 12 and 24 h). Samples were held on ice for no longer than 30 minutes before centrifugation (10,000 rpm (8,385 g) for 3 minutes; or 5,696 rpm (3,0009 for 15 minutes) for plasma generation. Plasma was frozen on dry ice prior to boanalysis. PK parameters were generated from LC-MS/MS data using Dotmatics or Phoenix WinNonlin 6.3 software.

NLRP3 [3] = target: T1, NLRP3; assay: Human whole blood IL1β release assay (LPS + nigericin, AlphaLisa IL-1β); assay type: cell-based; design: Human whole blood in Li-heparin tubes was obtained from healthy donors from a volunteer donor panel; from tissue; host or cells: human whole blood from healthy donors; conditions: NLRP3 inhibitory activity, 1 μg/ml LPS, 10 μM nigericin, IL-1β release, read-out: HWB IC50
Summary of the method: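 Donor human whole blood (Li-heparin) was primed with 1 μg/mL LPS while incubated with compound (8-point half-log, 10 μM top, 0.1% DMSO) for 3 h at 37° C., then stimulated with 10 μM nigericin for 1 h. Supernatant IL-1β measured by AlphaLISA; IC50 from 4-parameter nonlinear fit.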

T1 sequence (Q96P20 whole entry): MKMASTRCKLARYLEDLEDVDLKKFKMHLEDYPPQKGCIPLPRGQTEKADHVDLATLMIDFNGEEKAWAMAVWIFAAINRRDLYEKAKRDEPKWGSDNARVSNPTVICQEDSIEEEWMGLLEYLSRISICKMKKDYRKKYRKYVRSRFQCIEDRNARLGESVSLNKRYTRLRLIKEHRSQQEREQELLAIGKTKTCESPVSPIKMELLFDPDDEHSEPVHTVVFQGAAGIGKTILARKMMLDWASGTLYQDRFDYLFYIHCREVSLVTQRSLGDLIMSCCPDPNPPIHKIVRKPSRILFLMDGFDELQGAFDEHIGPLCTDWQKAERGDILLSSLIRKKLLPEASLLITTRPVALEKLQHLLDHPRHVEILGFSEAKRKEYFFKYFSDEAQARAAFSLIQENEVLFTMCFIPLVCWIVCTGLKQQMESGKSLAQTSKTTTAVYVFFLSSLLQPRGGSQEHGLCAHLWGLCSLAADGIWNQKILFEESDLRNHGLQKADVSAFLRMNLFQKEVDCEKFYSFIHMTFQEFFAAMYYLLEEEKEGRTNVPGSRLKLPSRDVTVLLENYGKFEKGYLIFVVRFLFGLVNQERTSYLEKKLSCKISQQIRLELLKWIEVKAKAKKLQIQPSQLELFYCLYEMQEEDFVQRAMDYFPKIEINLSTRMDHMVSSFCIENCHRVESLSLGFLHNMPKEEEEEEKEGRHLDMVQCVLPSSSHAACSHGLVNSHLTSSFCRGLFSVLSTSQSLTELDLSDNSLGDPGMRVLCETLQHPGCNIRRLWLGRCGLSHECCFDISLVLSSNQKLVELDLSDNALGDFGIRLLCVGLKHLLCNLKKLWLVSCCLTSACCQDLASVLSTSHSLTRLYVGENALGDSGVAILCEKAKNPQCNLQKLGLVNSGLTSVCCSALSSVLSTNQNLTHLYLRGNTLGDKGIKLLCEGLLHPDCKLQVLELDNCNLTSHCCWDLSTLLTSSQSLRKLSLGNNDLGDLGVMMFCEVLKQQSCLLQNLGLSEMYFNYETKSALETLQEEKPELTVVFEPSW

Row | IC50 (NLRP3 [1]) [nM] | AUC [2] [ng·h/mL] | clearance [2] [mL/min/kg] | half-life [2] [h] | Vd [2] [L/kg] | IC50 (NLRP3 [3]) [nM] | Structure (SMILES)
1 | 160 to 640 | 2620 | 6.9 | 4.3 | 1.03 | 400 to 800 | CC(C)N(C)Cc1cc(S(=O)(=O)NC(=O)Nc2c3c(cc4c2CCC4)CCC3)nn1C [Example 91, N-((1,2,3,5,6,7-Hexahydro-s-indacen-4-yl)carbamoyl)-5-((isopropyl(methyl)amino)methyl)-1-methyl-1H-pyrazole-3-sulfonamide]
2 | < 40 | 2780 | 8.5 | 2.4 | 0.51 | < 400 | CCC(c1cc(S(=O)(=O)NC(=O)Nc2c3c(cc4c2CCC4)CCC3)nn1C)N(C)C (single isomer, unassigned; enantiomer 2) [Example 72, 5-(1-(Dimethylamino)propyl)-N-((1,2,3,5,6,7-hexahydro-s-indacen-4-yl)carbamoyl)-1-methyl-1H-pyrazole-3-sulfonamide, Enantiomer 2]
3 | < 40 | 4010 | 4.2 | 0.8 | 0.25 | < 400 | CCC(c1cc(S(=O)(=O)NC(=O)Nc2c3c(cc4c2CCC4)CCC3)nn1C(C)C)N(C)C (stereo not shown) [Example 63, 5-(1-(Dimethylamino)propyl)-N-((1,2,3,5,6,7-hexahydro-s-indacen-4-yl)carbamoyl)-1-isopropyl-1H-pyrazole-3-sulfonamide]
4 | 40 to 160 |  |  |  |  | 800 to 1600 | CN(C)C1(c2cc(S(=O)(=O)NC(=O)Nc3c4c(cc5c3CCC5)CCC4)nn2C)CC1 [Example 58, 5-(1-(Dimethylamino)cyclopropyl)-N-((1,2,3,5,6,7-hexahydro-s-indacen-4-yl)carbamoyl)-1-methyl-1H-pyrazole-3-sulfonamide, Sodium Salt]
5 | 160 to 640 |  |  |  |  | 1600 to 3200 | COCCN(C)Cc1cc(S(=O)(=O)NC(=O)Nc2c3c(cc4c2CCC4)CCC3)nn1C [Example 119, N-((1,2,3,5,6,7-Hexahydro-s-indacen-4-yl)carbamoyl)-5-(((2-methoxyethyl)(methyl)amino)methyl)-1-methyl-1H-pyrazole-3-sulfonamide, Sodium Salt]
6 | < 40 |  |  |  |  | 1600 to 3200 | CC(C)n1nc(S(=O)(=O)NC(=O)Nc2c3c(cc4c2CCC4)CCC3)cc1CN(C)CCF [Example 57, 5-(((2-Fluoroethyl)(methyl)amino)methyl)-N-((1,2,3,5,6,7-hexahydro-s-indacen-4-yl)carbamoyl)-1-isopropyl-1H-pyrazole-3-sulfonamide, Sodium Salt]
7 | 160 to 640 |  |  |  |  | 400 to 800 | CC(C)c1cc(F)cc(-c2cccnc2)c1NC(=O)NS(=O)(=O)c1cc(CN(C)C)n(C(C)C)n1 [Example 54, 5-((Dimethylamino)methyl)-N-((4-fluoro-2-isopropyl-6-(pyridin-3-yl)phenyl)carbamoyl)-1-isopropyl-1H-pyrazole-3-sulfonamide]
8 | 160 to 640 |  |  |  |  | 800 to 1600 | CN(C)CCc1cc(S(=O)(=O)NC(=O)Nc2c3c(cc4c2CCC4)CCC3)nn1C [Example 59, 5-(2-(Dimethylamino)ethyl)-N-((1,2,3,5,6,7-hexahydro-s-indacen-4-yl)carbamoyl)-1-methyl-1H-pyrazole-3-sulfonamide]
9 | 160 to 640 |  |  |  |  | 800 to 1600 | CN(C)C1(c2cc(S(=O)(=O)NC(=O)Nc3c4c(cc5c3CCC5)CCC4)nn2C)COC1 [Example 115, 5-(3-(Dimethylamino)oxetan-3-yl)-N-((1,2,3,5,6,7-hexahydro-s-indacen-4-yl)carbamoyl)-1-methyl-1H-pyrazole-3-sulfonamide]
10 | 160 to 640 |  |  |  |  | 800 to 1600 | CC(C)c1cc(F)cc(-c2cccc(C#N)c2)c1NC(=O)NS(=O)(=O)c1cc(CN(C)C)n(C(C)C)n1 [Example 45, N-((3′-Cyano-5-fluoro-3-isopropyl-[1,1′-biphenyl]-2-yl)carbamoyl)-5-((dimethylamino)methyl)-1-isopropyl-1H-pyrazole-3-sulfonamide]
11 | 640 to 2560 |  |  |  |  | 400 to 800 | CC(C)c1cc(F)cc(C2CCOCC2)c1NC(=O)NS(=O)(=O)c1cc(C(=O)N(C)C)n(C)n1 [Example 126, 3-(N-((4-Fluoro-2-isopropyl-6-(tetrahydro-2H-pyran-4-yl)phenyl)carbamoyl)sulfamoyl)-N,N,1-trimethyl-1H-pyrazole-5-carboxamide, Sodium Salt]
12 | < 40 |  |  |  |  | < 400 | CCC(c1cc(S(=O)(=O)NC(=O)Nc2c(C(C)C)cc(F)cc2C(C)C)nn1C)N(C)C (stereo not shown) [Example 65, 5-(1-(Dimethylamino)propyl)-N-((4-fluoro-2,6-diisopropylphenyl)carbamoyl)-1-methyl-1H-pyrazole-3-sulfonamide]
13 | 160 to 640 |  |  |  |  | 400 to 800 | CCC(c1cc(S(=O)(=O)NC(=O)Nc2c(C(C)C)cc(F)cc2C(C)C)nn1C(C)C)N(C)C (stereo not shown) [Example 62, 5-(1-(Dimethylamino)propyl)-N-((4-fluoro-2,6-diisopropylphenyl)carbamoyl)-1-isopropyl-1H-pyrazole-3-sulfonamide]
14 | < 40 |  |  |  |  | 800 to 1600 | CC(C)n1nc(S(=O)(=O)NC(=O)Nc2c3c(cc4c2CCC4)CCC3)nc1CN(C)C [Example 187]
15 | 40 to 160 |  |  |  |  | 400 to 800 | Cn1nc(S(=O)(=O)NC(=O)Nc2c3c(cc4c2CCC4)CCC3)cc1CN1CCCC1 [Example 78, N-((1,2,3,5,6,7-Hexahydro-s-indacen-4-yl)carbamoyl)-1-methyl-5-(pyrrolidin-1-ylmethyl)-1H-pyrazole-3-sulfonamide, Sodium Salt]
16 | 40 to 160 |  |  |  |  | < 400 | CC(C)c1cc(F)cc(-c2cccnc2)c1NC(=O)NS(=O)(=O)c1cc(CN(C)C)n(C)n1 [Example 41, 5-((Dimethylamino)methyl)-N-((4-fluoro-2-isopropyl-6-(pyridin-3-yl)phenyl)carbamoyl)-1-methyl-1H-pyrazole-3-sulfonamide]
17 | 160 to 640 |  |  |  |  | < 400 | CC(C)c1cc(F)cc(C(C)C)c1NC(=O)NS(=O)(=O)c1cc(CN(C)C(C)C)n(C)n1 [Example 90, N-((4-Fluoro-2,6-diisopropylphenyl)carbamoyl)-5-((isopropyl(methyl)amino)methyl)-1-methyl-1H-pyrazole-3-sulfonamide, sodium Salt]
18 | < 40 |  |  |  |  | < 400 | CCn1nc(S(=O)(=O)NC(=O)Nc2c(-c3cccnc3)cc(F)c3c2CCC3)cc1CN(C)C [Example 20, 5-((Dimethylamino)methyl)-1-ethyl-N-((7-fluoro-5-(pyridin-3-yl)-2,3-dihydro-1H-inden-4-yl)carbamoyl)-1H-pyrazole-3-sulfonamide]
19 | 40 to 160 |  |  |  |  | 400 to 800 | CN(C)Cc1cc(S(=O)(=O)NC(=O)Nc2c3c(cc4c2CCC4)CCC3)nn1CC(C)(C)C [Example 31, 5-((Dimethylamino)methyl)-N-((1,2,3,5,6,7-hexahydro-s-indacen-4-yl)carbamoyl)-1-neopentyl-1H-pyrazole-3-sulfonamide]
20 | 160 to 640 |  |  |  |  | < 400 | CC(C)c1cc(F)cc(-c2cncnc2)c1NC(=O)NS(=O)(=O)c1cc(C(=O)N(C)C)n(C)n1 [Example 135, 3-(N-((4-Fluoro-2-isopropyl-6-(pyrimidin-5-yl)phenyl)carbamoyl)sulfamoyl)-N,N,1-trimethyl-1H-pyrazole-5-carboxamide, sodium Salt]
21 | 40 to 160 |  |  |  |  | 400 to 800 | CNCc1cc(S(=O)(=O)NC(=O)Nc2c3c(cc4c2CCC4)CCC3)nn1C [Example 67, N-((1,2,3,5,6,7-Hexahydro-s-indacen-4-yl)carbamoyl)-1-methyl-5-((methylamino)methyl)-1H-pyrazole-3-sulfonamide]
22 | 160 to 640 |  |  |  |  | < 400 | CCn1nc(S(=O)(=O)NC(=O)Nc2c(C(C)C)cc(F)cc2C(C)C)cc1CN(C)C [Example 51, 5-((Dimethylamino)methyl)-1-ethyl-N-((4-fluoro-2,6-diisopropylphenyl)carbamoyl)-1H-pyrazole-3-sulfonamide]
23 | 160 to 640 |  |  |  |  | 1600 to 3200 | CCn1nc(S(=O)(=O)NC(=O)Nc2c3c(cc4c2OCC4)CCC3)cc1CN(C)C [Example 185]
